# Measurements from PMC5513037, “Examining the influence of specificity ligands and ATP-competitive ligands on the overall effectiveness of bivalent kinase inhibitors” (Proteome Science, 2017).
# How the values were obtained:
# Experiment in all cases: KAM-matrix competition in K562 lysate;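 for 0.001 uM KAM: median log10 fold change of treatment over DMSO control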;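 for 0.01 uM KAM: median log10 fold change of treatment over DMSO control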;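 for 0.1 uM KAM: median log10 fold change of treatment over DMSO control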;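 for 1 uM KAM: median log10 fold change of treatment over DMSO control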;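 for 10 uM KAM: median log10 fold change of treatment over DMSO control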
# Format in all cases: binding
# [1] = molecular target: T1, MARK2 (Homo sapiens, UniProt Q7KZI7)
# T1 construct: endogenous in cells; host or cells: K562
# Description: (§1) Supplement 12953_2017_125_MOESM1_ESM.zip/MS_Supp Info.xlsx, sheet "KAM" | column: 10 uM KAM; 1 uM KAM; 0.1 uM KAM; 0.01 uM KAM; 0.001 uM KAM; RB50
# [2] = molecular target: T2, CSNK2A2 (Homo sapiens, UniProt P19784)
# T2 construct: endogenous in cells; host or cells: K562
# Description: as §1
# [3] = molecular target: T3, ADCK3 (Homo sapiens, UniProt Q8NI60);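 for 0.001 uM KAM: median log10 fold change of treatment over DMSO control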;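 for 0.01 uM KAM: median log10 fold change of treatment over DMSO control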;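 for 0.1 uM KAM: median log10 fold change of treatment over DMSO control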;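 for 1 uM KAM: median log10 fold change of treatment over DMSO control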;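 for 10 uM KAM: median log10 fold change of treatment over DMSO control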
# T3 construct: endogenous in cells; host or cells: K562
# Description: as §1
# [4] = molecular target: T4, WEE1 (Homo sapiens, UniProt P30291)
# T4 construct: endogenous in cells; host or cells: K562
# Description: as §1
# [5] = molecular target: T5, IKBKE (Homo sapiens, UniProt Q14164)
# T5 construct: endogenous in cells; host or cells: K562 cells (lysate)
# T5 sequence (Q14164 1-716): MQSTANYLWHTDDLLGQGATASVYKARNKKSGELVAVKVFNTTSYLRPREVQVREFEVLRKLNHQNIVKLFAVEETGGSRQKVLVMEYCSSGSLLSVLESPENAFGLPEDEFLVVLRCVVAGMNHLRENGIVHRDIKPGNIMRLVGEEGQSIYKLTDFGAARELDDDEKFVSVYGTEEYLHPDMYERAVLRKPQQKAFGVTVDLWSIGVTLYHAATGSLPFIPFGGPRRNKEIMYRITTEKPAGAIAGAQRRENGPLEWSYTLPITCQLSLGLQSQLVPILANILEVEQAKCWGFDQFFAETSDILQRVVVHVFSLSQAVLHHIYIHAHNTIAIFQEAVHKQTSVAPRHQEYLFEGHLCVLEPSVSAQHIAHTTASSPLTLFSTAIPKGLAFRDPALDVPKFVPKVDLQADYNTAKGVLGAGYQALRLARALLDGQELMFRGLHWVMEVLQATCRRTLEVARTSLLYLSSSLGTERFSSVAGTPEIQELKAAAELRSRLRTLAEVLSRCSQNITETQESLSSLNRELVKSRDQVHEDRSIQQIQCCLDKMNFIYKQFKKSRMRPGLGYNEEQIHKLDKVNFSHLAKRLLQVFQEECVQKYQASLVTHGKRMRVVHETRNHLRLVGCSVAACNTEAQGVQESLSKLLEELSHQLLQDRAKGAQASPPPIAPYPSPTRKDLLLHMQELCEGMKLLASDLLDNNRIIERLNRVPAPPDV
# Description: as §1
# [6] = molecular target: T6, TNIK (Homo sapiens, UniProt Q9UKE5)
# T6 construct: K562 cell pellets were thawed on ice and resuspended in cold Lysis buffer; endogenous in cells; host or cells: K562
# Description: as §1
# [7] = molecular target: T7, PRKCQ (Homo sapiens, UniProt Q04759)
# T7 construct: endogenous in cells; host or cells: K562
# Description: as §1
# [8] = molecular target: T8, DYRK1A (Homo sapiens, UniProt Q13627)
# T8 construct: endogenous in cells; host or cells: K562
# Description: as §1
# [9] = molecular target: T9, MST1R (Homo sapiens, UniProt Q04912);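 for 0.001 uM KAM: median log10 fold change of treatment over DMSO control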;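 for 0.01 uM KAM: median log10 fold change of treatment over DMSO control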;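 for 0.1 uM KAM: median log10 fold change of treatment over DMSO control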;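 for 1 uM KAM: median log10 fold change of treatment over DMSO control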;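 for 10 uM KAM: median log10 fold change of treatment over DMSO control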
# T9 construct: endogenous in cells; host or cells: K562
# Description: as §1
# [10] = molecular target: T10, TNK1 (Homo sapiens, UniProt Q13470)
# T10 construct: endogenous in cells; host or cells: K562
# T10 sequence (Q13470 1-666): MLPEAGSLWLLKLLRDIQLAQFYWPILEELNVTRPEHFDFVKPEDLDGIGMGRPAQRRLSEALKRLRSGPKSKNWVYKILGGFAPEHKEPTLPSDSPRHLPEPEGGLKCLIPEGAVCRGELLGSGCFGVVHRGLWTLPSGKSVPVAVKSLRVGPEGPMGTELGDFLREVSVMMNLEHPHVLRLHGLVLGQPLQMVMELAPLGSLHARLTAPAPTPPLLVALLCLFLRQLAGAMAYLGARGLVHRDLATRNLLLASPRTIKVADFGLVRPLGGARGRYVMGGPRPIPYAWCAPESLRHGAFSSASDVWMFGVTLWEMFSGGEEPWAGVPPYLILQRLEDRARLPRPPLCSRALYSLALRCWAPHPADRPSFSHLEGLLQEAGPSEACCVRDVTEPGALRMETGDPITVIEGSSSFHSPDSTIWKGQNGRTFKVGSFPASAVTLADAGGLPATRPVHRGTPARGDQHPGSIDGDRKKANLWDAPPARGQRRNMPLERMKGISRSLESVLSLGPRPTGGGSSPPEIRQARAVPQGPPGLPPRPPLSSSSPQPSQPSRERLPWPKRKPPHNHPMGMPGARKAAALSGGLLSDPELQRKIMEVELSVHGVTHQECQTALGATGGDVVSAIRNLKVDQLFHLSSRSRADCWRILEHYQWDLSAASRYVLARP
# Description: as §1
# [11] = read-out: RB50 (the source's name)
# [12] = KAM 0.001-10 uM, read-out: RB50 (the source's name)
structure (smiles),measurement,setting,value
N#CCc1ccc(Nc2nc(NCCCN)cc(Nc3cc(C4CC4)[nH]n3)n2)cc1 [KAM],median Log10 fold change,[1]; 0.001 uM KAM,-0.02617
same,median Log10 fold change,[1]; 0.01 uM KAM,-0.01928
same,median Log10 fold change,[1]; 0.1 uM KAM,-0.2168
same,median Log10 fold change,[1]; 1 uM KAM,-0.4361
same,median Log10 fold change,[1]; 10 uM KAM,-0.5469
same,IC50,[1]; [11],0.336 µM
same,median Log10 fold change,[2]; 0.001 uM KAM,0.0115
same,median Log10 fold change,[2]; 0.01 uM KAM,-0.003085
same,median Log10 fold change,[2]; 0.1 uM KAM,-0.2921
same,median Log10 fold change,[2]; 1 uM KAM,-0.5833
same,median Log10 fold change,[2]; 10 uM KAM,-0.635
same,IC50,[2]; [11],0.15 µM
same,IC50,[3]; [12],> 10 µM
same,0.001 uM KAM,[3]; relative to 0 uM KAM = 0,-0.001841
same,0.01 uM KAM,[3]; relative to 0 uM KAM = 0,0.006632
same,0.1 uM KAM,[3]; relative to 0 uM KAM = 0,0.0007813
same,1 uM KAM,[3]; relative to 0 uM KAM = 0,0.03707
same,10 uM KAM,[3]; relative to 0 uM KAM = 0,-0.06845
same,median Log10 fold change,[4]; 0.001 uM KAM,-0.01698
same,median Log10 fold change,[4]; 0.01 uM KAM,-0.006292
same,median Log10 fold change,[4]; 0.1 uM KAM,-0.1327
same,median Log10 fold change,[4]; 1 uM KAM,-0.2838
same,median Log10 fold change,[4]; 10 uM KAM,-0.4489
same,IC50,[4]; [11],1.32 µM
same,median Log10 fold change,[5]; 0.001 uM KAM,-0.04139
same,median Log10 fold change,[5]; 0.01 uM KAM,-0.01605
same,median Log10 fold change,[5]; 0.1 uM KAM,-0.1319
same,median Log10 fold change,[5]; 1 uM KAM,-0.3552
same,median Log10 fold change,[5]; 10 uM KAM,-0.4826
same,IC50,[5]; [11],0.823 µM
same,median Log10 fold change,[6]; 0.001 uM KAM,-0.02112
same,median Log10 fold change,[6]; 0.01 uM KAM,-0.02269
same,median Log10 fold change,[6]; 0.1 uM KAM,-0.2334
same,median Log10 fold change,[6]; 1 uM KAM,-0.3546
same,median Log10 fold change,[6]; 10 uM KAM,-0.3559
same,IC50,[6]; [11],0.646 µM
same,median Log10 fold change,[7]; 0.001 uM KAM,-0.05924
same,median Log10 fold change,[7]; 0.01 uM KAM,-0.02167
same,median Log10 fold change,[7]; 0.1 uM KAM,-0.1204
same,median Log10 fold change,[7]; 1 uM KAM,-0.1965
same,median Log10 fold change,[7]; 10 uM KAM,-0.3734
same,IC50,[7]; [11],3.6 µM
same,median Log10 fold change,[8]; 0.001 uM KAM,-0.05439
same,median Log10 fold change,[8]; 0.01 uM KAM,-0.0501
same,median Log10 fold change,[8]; 0.1 uM KAM,-0.184
same,median Log10 fold change,[8]; 1 uM KAM,-0.2641
same,median Log10 fold change,[8]; 10 uM KAM,-0.4024
same,IC50,[8]; [11],1.47 µM
same,IC50,[9]; [12],> 10 µM
same,0.001 uM KAM,[9]; relative to 0 uM KAM = 0,-0.1284
same,0.01 uM KAM,[9]; relative to 0 uM KAM = 0,-0.04073
same,0.1 uM KAM,[9]; relative to 0 uM KAM = 0,-0.1983
same,1 uM KAM,[9]; relative to 0 uM KAM = 0,-0.07265
same,10 uM KAM,[9]; relative to 0 uM KAM = 0,-0.08067
same,median Log10 fold change,[10]; 0.001 uM KAM,-0.003814
same,median Log10 fold change,[10]; 0.01 uM KAM,-0.02527
same,median Log10 fold change,[10]; 0.1 uM KAM,-0.2865
same,median Log10 fold change,[10]; 1 uM KAM,-0.4389
same,median Log10 fold change,[10]; 10 uM KAM,-0.4693
same,IC50,[10]; [11],0.199 µM
